Assay results as given in BindingDB's records for patent US20250325529 (Celloram, 2025).

Assays:
Experiment in all cases: Binding assays for FABP3, FABP4, FABP5 and FABP7
[1] = target: Fatty acid-binding protein 5 (Homo sapiens, UniProt Q01469)
Procedure: (§1) Binding assays for FABP3, FABP4, FABP5 and FABP7 were carried out by fluorescence titrations. His-tagged FABPs were bacterially expressed in E. coli, purified using Ni Sepharose beads, and the equilibrium dissociation constants (Kd) that characterize their interactions with different inhibitor compounds were measured by fluorescence competition assays. The method entails two steps as described in e.g., Lin, Q. et al., “Ligand selectivity of the peroxisome proliferator-activated receptor alpha,” Biochemistry 38, 185-190, doi:10.1021/bi9816094 [pii](1999). In the first step, Kd for the association of the protein with the fluorescent fatty acid probe ANS was measured. Protein (2 μM) was titrated with ANS from a concentrated solution in DMSO. Ligand binding was monitored by following the increase in the fluorescence of the ligand upon binding to the protein, and Kd for the association of ANS with the each FABP was computed from titration curves as described in e.g., Norris, A. W. & Li, E., “Fluorometric titration of the CRABPs,” Methods Mol Biol 89, 123-139 (1998)). In the second step, Kds for binding of non-fluorescent ligands were measured by monitoring their ability to displace ANS in the binding pocket of the protein.

[2] = target: Fatty acid-binding protein, heart (Homo sapiens, UniProt P05413)
Procedure: as §1

[3] = target: Fatty acid-binding protein, adipocyte (Homo sapiens, UniProt P15090)
Procedure: as §1

[4] = target: Fatty acid-binding protein, brain (FABP7) (Homo sapiens, UniProt O15540)
Procedure: as §1

Sequence of Fatty acid-binding protein 5 (Q01469 whole entry): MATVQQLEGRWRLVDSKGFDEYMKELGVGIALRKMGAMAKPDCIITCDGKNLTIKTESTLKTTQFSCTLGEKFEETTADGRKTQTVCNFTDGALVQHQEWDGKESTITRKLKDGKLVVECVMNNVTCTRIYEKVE
Sequence of Fatty acid-binding protein, adipocyte (P15090 whole entry): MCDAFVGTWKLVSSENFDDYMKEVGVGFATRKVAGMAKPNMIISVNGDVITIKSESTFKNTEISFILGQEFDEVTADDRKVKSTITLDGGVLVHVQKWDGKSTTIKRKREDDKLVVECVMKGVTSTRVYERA
Sequence of Fatty acid-binding protein, brain (FABP7) (O15540 whole entry): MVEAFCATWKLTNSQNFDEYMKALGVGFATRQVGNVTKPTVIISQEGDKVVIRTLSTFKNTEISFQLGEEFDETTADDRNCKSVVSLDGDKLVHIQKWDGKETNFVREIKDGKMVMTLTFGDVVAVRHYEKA
Sequence of Fatty acid-binding protein, heart (P05413 whole entry): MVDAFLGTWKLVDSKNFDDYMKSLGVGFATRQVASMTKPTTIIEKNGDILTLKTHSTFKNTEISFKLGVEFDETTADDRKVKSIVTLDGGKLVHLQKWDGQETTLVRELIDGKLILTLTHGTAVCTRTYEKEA

Kd [1]: 11 nM
Kd [2]: 60.8 nM
Kd [3]: 14 nM
Kd [4]: 43 nM
SMILES: CC(C)Oc1nc(NC(=O)CC(C)(C)CC(=O)O)c(Cl)cc1Cl [US20250325529, ID PD154]
